The values that follow come from the supplement of paper PMC10307832.

Common to all, as to assay: relative viability (nuclei count vs DMSO), 5 days (fraction); higher = more cells survive
Compound in the experiment “MK-8033 + Trametinib”: Cn1cc(-c2cnc3ccc4ccc(CS(=O)(=O)NCc5ccccn5)cc4c(=O)c3c2)cn1 [MK-8033] + CC(=O)Nc1cccc(-n2c(=O)n(C3CC3)c(=O)c3c(Nc4ccc(I)cc4F)n(C)c(=O)c(C)c32)c1 [Trametinib] (partner 0.02 µM)
The method in brief: (§1)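 Lung cancer cell lines were seeded in 1536-well plates and dosed by pin tool the next day, with either a single drug or a fixed anchor-drug dose combined with five library-drug doses (not always all listed) spaced in √10 steps. Five days later, one step fixed the cells and stained their nuclei (final 0.05% Triton X-100, 1% formaldehyde, 1 ug/ml Hoechst), and nuclei were counted on 4× images. Relative viability is the nuclei count in treated wells divided by the count in vehicle wells, and each value is the median of duplicate plates.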

Compound in the experiment “RU-SKI 43 + Pictilisib”: CC[C@@H](C)CNCC(=O)N1CCC2=C([C@@H]1COC3=CC=CC(=C3)C)C=CS2 [RU-SKI 43] + CS(=O)(=O)N1CCN(Cc2cc3nc(-c4cccc5[nH]ncc45)nc(N4CCOCC4)c3s2)CC1 [Pictilisib] (partner 1 µM)
In outline:
as §1

Compound in the experiment “Irinotecan + Tozasertib”: CCc1c2c(nc3ccc(OC(=O)N4CCC(N5CCCCC5)CC4)cc13)-c1cc3c(c(=O)n1C2)COC(=O)[C@]3(O)CC [Irinotecan] + Cc1cc(Nc2cc(N3CCN(C)CC3)nc(Sc3ccc(NC(=O)C4CC4)cc3)n2)n[nH]1 [Tozasertib] (partner 0.1 µM)
The method in brief:
as §1

Compound in the experiment “MK-8033 + Decitabine”: Cn1cc(-c2cnc3ccc4ccc(CS(=O)(=O)NCc5ccccn5)cc4c(=O)c3c2)cn1 [MK-8033] + Nc1ncn([C@H]2C[C@H](O)[C@@H](CO)O2)c(=O)n1 [Decitabine] (partner 2 µM)
In outline: as §1

In the case of UMC-11, the relative viability with MK-8033 + Trametinib (first compound 0.02 µM) was determined as 0.714; with MK-8033 + Trametinib (first compound 0.06325 µM), 0.457; in the experiment with MK-8033 + Trametinib (first compound 0.2 µM) it was 0.604; with MK-8033 + Trametinib (first compound 0.6325 µM), 0.643; with MK-8033 + Trametinib (first compound 2 µM), 0.642; in the experiment with RU-SKI 43 + Pictilisib (first compound 0.1 µM) it was 0.958. The relative viability with RU-SKI 43 + Pictilisib (first compound 0.3162 µM) was 1.11; in the experiment with RU-SKI 43 + Pictilisib (first compound 1 µM), 0.876; with RU-SKI 43 + Pictilisib (first compound 3.162 µM), 0.789; with RU-SKI 43 + Pictilisib (first compound 10 µM), 0.695; with Irinotecan + Tozasertib (first compound 0.6325 µM) it was 0.194; with Irinotecan + Tozasertib (first compound 2 µM), 0.25. Also, the relative viability with Irinotecan + Tozasertib (first compound 6.325 µM) is 0.268; with Irinotecan + Tozasertib (first compound 20 µM) it was 0.247; with MK-8033 + Decitabine (first compound 0.02 µM), 0.593; with MK-8033 + Decitabine (first compound 0.06325 µM), 0.424; with MK-8033 + Decitabine (first compound 0.2 µM), 0.59; with MK-8033 + Decitabine (first compound 0.6325 µM), 0.714. Further, in the experiment with MK-8033 + Decitabine (first compound 2 µM), the relative viability turned out to be 0.612.
